Results from ChEMBL document CHEMBL5390253, “Discovery of Selective and Potent Macrocyclic CDK9 Inhibitors for the Treatment of Osimertinib-Resistant Non-Small-Cell Lung Cancer” (J Med Chem, 2023).

biological target: Receptor-type tyrosine-protein kinase FLT3 (Homo sapiens) (UniProt P36888); experiment: Inhibition of FLT3 (unknown origin) at 100 nM preincubated for 10 mins followed by substrate addition and measured after 60 mins in presence of ATP by ADP-Glo reagent based assay relative to control; conditions: time 70.0 min
Sequence (P36888 whole entry): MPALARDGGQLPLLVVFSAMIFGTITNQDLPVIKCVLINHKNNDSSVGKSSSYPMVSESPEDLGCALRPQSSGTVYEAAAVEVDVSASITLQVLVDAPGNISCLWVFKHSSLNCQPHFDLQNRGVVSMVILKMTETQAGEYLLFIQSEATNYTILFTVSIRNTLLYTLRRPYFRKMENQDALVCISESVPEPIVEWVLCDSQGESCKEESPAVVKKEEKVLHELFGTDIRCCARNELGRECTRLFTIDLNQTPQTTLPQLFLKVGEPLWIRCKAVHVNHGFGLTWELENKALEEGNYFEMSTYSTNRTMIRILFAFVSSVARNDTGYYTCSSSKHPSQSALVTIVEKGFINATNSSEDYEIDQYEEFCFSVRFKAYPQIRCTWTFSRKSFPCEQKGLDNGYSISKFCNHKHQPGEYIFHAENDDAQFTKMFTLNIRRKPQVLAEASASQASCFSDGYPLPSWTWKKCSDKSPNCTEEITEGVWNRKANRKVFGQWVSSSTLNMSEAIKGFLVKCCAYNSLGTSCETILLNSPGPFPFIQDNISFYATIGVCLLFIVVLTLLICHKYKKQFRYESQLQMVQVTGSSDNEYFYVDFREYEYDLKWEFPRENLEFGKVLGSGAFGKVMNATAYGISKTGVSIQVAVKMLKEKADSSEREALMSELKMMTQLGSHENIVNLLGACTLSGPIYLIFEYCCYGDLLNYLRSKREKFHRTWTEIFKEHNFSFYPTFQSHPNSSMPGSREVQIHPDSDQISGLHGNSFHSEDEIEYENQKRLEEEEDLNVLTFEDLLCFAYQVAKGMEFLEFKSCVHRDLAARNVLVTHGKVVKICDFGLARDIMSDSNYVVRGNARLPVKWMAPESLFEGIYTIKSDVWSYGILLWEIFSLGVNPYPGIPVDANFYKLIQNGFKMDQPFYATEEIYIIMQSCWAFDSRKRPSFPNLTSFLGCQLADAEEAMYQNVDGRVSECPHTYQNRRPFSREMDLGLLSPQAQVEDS

Row | Structure (SMILES) | inhibition [%]
1 | O=C(NC1CCOCC1)c1ccc2cc1OCCCCOc1cc(ccc1F)-c1nc(ncc1F)N2 | 60.9
2 | O=C(NCCN1CCOCC1)c1ccc2cc1OCCCCOc1cc(ccc1F)-c1nc(ncc1F)N2 | 77.3

test system: HCC827; experiment: Antiproliferative activity against human HCC827 cells incubated for 72 hrs by MTT assay; assay type: functional, cell-based; conditions: HCC827, 72 h

Row | Structure (SMILES) | IC50 [nM]
3 | O=C(NCC1CCNCC1)c1ccc2cc1OCCCCOc1cc(ccc1F)-c1nc(ncc1F)N2 | 343
4 | O=C(c1ccc2cc1OCCCCOc1cc(ccc1F)-c1nc(ncc1F)N2)N1CCCNCC1 | 1940
5 | O=C(NC1CCCNCC1)c1ccc2cc1OCCCCOc1cc(ccc1F)-c1nc(ncc1F)N2 (centres undefined) | 403
6 | O=C(NC1CCOCC1)c1ccc2cc1OCCCCOc1cc(ccc1F)-c1nc(ncc1F)N2 | 181
7 | O=C(NCCN1CCOCC1)c1ccc2cc1OCCCCOc1cc(ccc1F)-c1nc(ncc1F)N2 | 182

biological target: CDK9/cyclin T1 (Homo sapiens) (UniProt O60563+P50750); experiment: Inhibition of CDK9/Cyclin-T1 (unknown origin) at 20 nM preincubated for 10 mins followed by substrate addition and measured after 60 mins in presence of ATP by ADP-Glo reagent based assay relative to control; assay type: protein-complex assay; conditions: time 70.0 min

Row | Structure (SMILES) | inhibition [%]
8 | O=C(c1ccc2cc1OCCCCOc1cc(ccc1F)-c1nc(ncc1F)N2)N1CCCNCC1 | 27

biological target: CDK2/Cyclin A2 (Homo sapiens, UniProt P24941); experiment: Inhibition of CDK2/Cyclin A2 (unknown origin) preincubated for 10 mins followed by substrate addition and measured after 60 mins in presence of ATP by ADP-Glo reagent based assay; assay type: protein-complex assay; conditions: not given

Row | Structure (SMILES) | IC50 [nM]
9 | O=C(NCC1CCNCC1)c1ccc2cc1OCCCCOc1cc(ccc1F)-c1nc(ncc1F)N2 | 15
10 | O=C(NC1CCCNCC1)c1ccc2cc1OCCCCOc1cc(ccc1F)-c1nc(ncc1F)N2 (centres undefined) | 54.3
11 | O=C(NC1CCOCC1)c1ccc2cc1OCCCCOc1cc(ccc1F)-c1nc(ncc1F)N2 | 95.1
12 | O=C(NCCN1CCOCC1)c1ccc2cc1OCCCCOc1cc(ccc1F)-c1nc(ncc1F)N2 | 34.2

biological target: CDK9/cyclin T1 (Homo sapiens, UniProt P50750); experiment: Inhibition of CDK9/Cyclin-T1 (unknown origin) preincubated for 10 mins followed by substrate addition and measured after 60 mins in presence of ATP by ADP-Glo reagent based assay; assay type: protein-complex assay; conditions: not given
Sequence (O60563 whole entry): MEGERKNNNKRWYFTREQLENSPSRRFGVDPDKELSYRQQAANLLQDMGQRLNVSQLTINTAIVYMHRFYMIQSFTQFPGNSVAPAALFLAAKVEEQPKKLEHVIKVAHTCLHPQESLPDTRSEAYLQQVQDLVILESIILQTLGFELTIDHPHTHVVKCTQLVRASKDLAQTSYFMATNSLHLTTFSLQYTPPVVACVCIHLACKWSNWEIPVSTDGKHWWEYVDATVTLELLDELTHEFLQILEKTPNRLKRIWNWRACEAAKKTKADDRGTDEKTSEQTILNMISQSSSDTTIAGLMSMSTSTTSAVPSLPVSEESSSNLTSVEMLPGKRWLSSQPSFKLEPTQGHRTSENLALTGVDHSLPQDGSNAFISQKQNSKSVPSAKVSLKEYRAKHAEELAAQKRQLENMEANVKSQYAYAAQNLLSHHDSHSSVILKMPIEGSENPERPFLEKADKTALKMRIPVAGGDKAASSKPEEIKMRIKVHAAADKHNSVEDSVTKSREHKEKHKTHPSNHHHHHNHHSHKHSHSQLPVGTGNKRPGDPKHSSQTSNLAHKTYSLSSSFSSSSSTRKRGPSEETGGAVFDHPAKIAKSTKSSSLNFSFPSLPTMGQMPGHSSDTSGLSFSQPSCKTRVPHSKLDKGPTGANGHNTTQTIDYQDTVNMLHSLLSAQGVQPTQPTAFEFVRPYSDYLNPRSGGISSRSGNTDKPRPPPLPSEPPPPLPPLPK
Sequence (P50750 whole entry): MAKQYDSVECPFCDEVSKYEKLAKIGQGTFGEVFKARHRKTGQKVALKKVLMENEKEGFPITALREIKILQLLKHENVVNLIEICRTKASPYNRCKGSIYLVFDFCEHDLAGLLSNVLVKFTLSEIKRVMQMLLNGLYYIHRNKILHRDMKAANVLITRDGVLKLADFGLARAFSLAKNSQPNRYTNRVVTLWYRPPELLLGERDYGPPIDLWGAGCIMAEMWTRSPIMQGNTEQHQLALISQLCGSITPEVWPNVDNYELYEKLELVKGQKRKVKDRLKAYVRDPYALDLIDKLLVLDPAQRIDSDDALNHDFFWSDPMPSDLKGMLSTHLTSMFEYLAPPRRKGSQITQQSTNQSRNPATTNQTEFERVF

Row | Structure (SMILES) | IC50 [nM]
13 | O=C(NCC1CCNCC1)c1ccc2cc1OCCCCOc1cc(ccc1F)-c1nc(ncc1F)N2 | 2.1
14 | O=C(NC1CCCNCC1)c1ccc2cc1OCCCCOc1cc(ccc1F)-c1nc(ncc1F)N2 (centres undefined) | 3.1
15 | O=C(NC1CCOCC1)c1ccc2cc1OCCCCOc1cc(ccc1F)-c1nc(ncc1F)N2 | 2.8
16 | O=C(NCCN1CCOCC1)c1ccc2cc1OCCCCOc1cc(ccc1F)-c1nc(ncc1F)N2 | 0.9

test system: not listed separately; experiment: Downregulation of Mcl-1 in human NCI-H1975 cells at 500 nM relative to control; assay type: functional; conditions: not given

Row | Structure (SMILES) | Activity [%]
17 | O=C(NCC1CCNCC1)c1ccc2cc1OCCCCOc1cc(ccc1F)-c1nc(ncc1F)N2 | 1.6
18 | O=C(c1ccc2cc1OCCCCOc1cc(ccc1F)-c1nc(ncc1F)N2)N1CCCNCC1 | -27
19 | O=C(NC1CCCNCC1)c1ccc2cc1OCCCCOc1cc(ccc1F)-c1nc(ncc1F)N2 (centres undefined) | 21.1
20 | O=C(NC1CCOCC1)c1ccc2cc1OCCCCOc1cc(ccc1F)-c1nc(ncc1F)N2 | 99
21 | O=C(NCCN1CCOCC1)c1ccc2cc1OCCCCOc1cc(ccc1F)-c1nc(ncc1F)N2 | 95.6

biological target: CDK2/Cyclin A2 (Homo sapiens) (UniProt P24941+P20248); experiment: Inhibition of CDK2/Cyclin A2 (unknown origin) at 100 nM preincubated for 10 mins followed by substrate addition and measured after 60 mins in presence of ATP by ADP-Glo reagent based assay relative to control; assay type: protein-complex assay; conditions: time 70.0 min

Row | Structure (SMILES) | inhibition [%]
22 | O=C(c1ccc2cc1OCCCCOc1cc(ccc1F)-c1nc(ncc1F)N2)N1CCCNCC1 | 21.2

biological target: Tyrosine-protein kinase JAK2 (Homo sapiens) (UniProt O60674); experiment: Inhibition of JAK2 (unknown origin) at 100 nM preincubated for 10 mins followed by substrate addition and measured after 60 mins in presence of ATP by ADP-Glo reagent based assay relative to control; conditions: time 70.0 min
Sequence (O60674 whole entry): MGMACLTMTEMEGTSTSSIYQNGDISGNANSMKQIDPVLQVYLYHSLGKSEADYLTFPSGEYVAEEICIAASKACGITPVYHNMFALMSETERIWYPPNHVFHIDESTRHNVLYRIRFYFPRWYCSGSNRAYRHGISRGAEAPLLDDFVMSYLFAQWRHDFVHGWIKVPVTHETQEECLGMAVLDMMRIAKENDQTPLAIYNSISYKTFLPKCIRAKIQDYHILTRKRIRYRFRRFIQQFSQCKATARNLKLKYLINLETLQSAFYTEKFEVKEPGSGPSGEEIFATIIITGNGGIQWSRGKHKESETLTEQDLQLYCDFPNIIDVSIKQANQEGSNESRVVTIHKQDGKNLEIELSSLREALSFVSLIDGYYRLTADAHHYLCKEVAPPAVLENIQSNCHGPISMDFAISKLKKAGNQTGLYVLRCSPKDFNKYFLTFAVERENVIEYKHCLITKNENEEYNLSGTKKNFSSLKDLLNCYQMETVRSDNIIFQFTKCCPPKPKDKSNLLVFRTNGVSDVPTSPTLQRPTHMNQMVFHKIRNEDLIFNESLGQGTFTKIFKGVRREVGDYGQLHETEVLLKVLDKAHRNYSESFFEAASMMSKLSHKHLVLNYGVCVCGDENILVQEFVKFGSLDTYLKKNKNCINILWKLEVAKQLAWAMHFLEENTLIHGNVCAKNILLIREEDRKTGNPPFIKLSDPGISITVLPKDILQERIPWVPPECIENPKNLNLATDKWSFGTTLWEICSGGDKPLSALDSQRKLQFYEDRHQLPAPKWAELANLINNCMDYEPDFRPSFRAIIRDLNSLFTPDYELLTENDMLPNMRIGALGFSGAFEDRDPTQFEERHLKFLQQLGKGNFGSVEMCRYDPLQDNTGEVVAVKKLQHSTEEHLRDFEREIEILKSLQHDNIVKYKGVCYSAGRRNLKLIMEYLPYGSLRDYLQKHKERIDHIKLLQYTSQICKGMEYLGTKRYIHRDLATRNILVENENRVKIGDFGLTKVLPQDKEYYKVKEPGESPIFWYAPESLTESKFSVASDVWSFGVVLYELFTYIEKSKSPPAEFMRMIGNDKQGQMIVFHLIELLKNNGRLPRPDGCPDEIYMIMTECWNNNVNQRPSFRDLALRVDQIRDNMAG

Row | Structure (SMILES) | inhibition [%]
23 | O=C(NC1CCOCC1)c1ccc2cc1OCCCCOc1cc(ccc1F)-c1nc(ncc1F)N2 | 73.2
24 | O=C(NCCN1CCOCC1)c1ccc2cc1OCCCCOc1cc(ccc1F)-c1nc(ncc1F)N2 | 79.7

test system: NCI-H1975; experiment: Antiproliferative activity against human NCI-H1975 cells incubated for 72 hrs by MTT assay; assay type: functional, cell-based; conditions: NCI-H1975, 72 h

Row | Structure (SMILES) | IC50 [nM]
25 | O=C(NCC1CCNCC1)c1ccc2cc1OCCCCOc1cc(ccc1F)-c1nc(ncc1F)N2 | 336
26 | O=C(c1ccc2cc1OCCCCOc1cc(ccc1F)-c1nc(ncc1F)N2)N1CCCNCC1 | 1180
27 | O=C(NC1CCCNCC1)c1ccc2cc1OCCCCOc1cc(ccc1F)-c1nc(ncc1F)N2 (centres undefined) | 116
28 | O=C(NC1CCOCC1)c1ccc2cc1OCCCCOc1cc(ccc1F)-c1nc(ncc1F)N2 | 283
29 | O=C(NCCN1CCOCC1)c1ccc2cc1OCCCCOc1cc(ccc1F)-c1nc(ncc1F)N2 | 21
